Laboratory results taken from PubChem BioAssay AID1508610 (The Scripps Research Institute Molecular Screening Center, 2020).
The source made the active and inactive calls. The rule behind the calls is not given here.

Biological target: G-protein coupled receptor 151 (Homo sapiens) (UniProt Q8TDV0)
Assay: GPR151 activator potency, dose response, cell-based (AID 1508610)
Conditions: cell-based GPR151 activation reporter

Sequence of G-protein coupled receptor 151 (Homo sapiens) (Q8TDV0 whole entry, looked up): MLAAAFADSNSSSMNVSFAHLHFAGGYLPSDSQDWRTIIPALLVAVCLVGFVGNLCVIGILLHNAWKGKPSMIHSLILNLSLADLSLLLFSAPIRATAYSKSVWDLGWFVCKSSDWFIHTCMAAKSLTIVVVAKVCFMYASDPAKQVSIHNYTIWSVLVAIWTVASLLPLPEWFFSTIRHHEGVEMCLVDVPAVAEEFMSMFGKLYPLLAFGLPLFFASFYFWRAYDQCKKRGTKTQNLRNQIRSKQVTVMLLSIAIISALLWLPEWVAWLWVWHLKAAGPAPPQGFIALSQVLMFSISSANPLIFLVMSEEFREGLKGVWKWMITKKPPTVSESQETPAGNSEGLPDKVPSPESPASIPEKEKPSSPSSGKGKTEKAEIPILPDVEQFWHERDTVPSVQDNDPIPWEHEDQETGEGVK

Row | EC50 | Structure (SMILES)
1 | > 26.4 µM (inactive) | CCCOc1ccc(NC(=O)C2CC(=O)N(CC)C(=Nc3ccc(C)c(C)c3)S2)cc1 (stereo unspecified)
2 | > 11.2 µM (inactive) | COc1ccc(-c2nc(C(=O)N3CCN(C)CC3)sc2-c2ccc(OC)cc2)cc1
3 | > 31.1 µM (inactive) | CCCCCCOc1ccc(C(=O)O)cc1OC
4 | > 28 µM (inactive) | O=C(NN=C1CCCCC1)C(O)(c1ccccc1)c1ccccc1
5 | > 28 µM (inactive) | Cc1ccccc1N(CC(=O)N1CCOCC1)S(=O)(=O)c1ccc(Cl)cc1
6 | > 25 µM (inactive) | CCN(CC)S(=O)(=O)c1ccc(C(=O)Nc2ccc(Cc3ccncc3)cc2)cc1
7 | inactive | CCOC(=O)c1cnc2c(OC)cccc2c1NC1CCCCC1
8 | > 28.8 µM (inactive) | O=c1oc2cc(O)ccc2cc1-c1ccc(Cl)cc1
9 | > 29 µM (inactive) | CCOC(=O)c1sc(NC(=O)c2sccc2C)cc1C
10 | > 28 µM (inactive) | NN1C(=O)c2ccccc2NC1C1CC=CCC1 (stereo unspecified)
11 | > 17.6 µM (inactive) | O=S(=O)(c1ccc(-c2csc(=Nc3cccc(Cl)c3)n2CCCO)cc1)N1CCCCC1
12 | > 28 µM (inactive) | O=C(Nc1ccc(Br)cn1)c1ccc(N2CCCCC2)c([N+](=O)[O-])c1
13 | inactive | COc1ccc(C2C=C(c3ccc(Cl)cc3)Nc3nc(CCCO)nn32)cc1 (stereo unspecified)
14 | > 28 µM (inactive) | O=C(c1ccc2c(c1)OCO2)N1CCN(c2ccc(Cl)cc2)CC1
15 | > 28.2 µM (inactive) | CCN=C1SC(CC(=O)Nc2sc(C)c(C)c2C(=O)OC)C(=O)N1CC (stereo unspecified)
16 | inactive | COc1ccccc1Cn1c(=S)[nH]c2cc(C(=O)N3CCC(C(N)=O)(N4CCCCC4)CC3)ccc2c1=O
17 | > 30.5 µM (inactive) | COc1ccc(/C=C/C(=O)Nc2ccccc2F)cc1
18 | > 27.4 µM (inactive) | O=C(Nc1nc2cc3c(cc2s1)OCO3)C1=COCCO1
19 | > 28.2 µM (inactive) | COc1ccc(-c2ccc(C(=O)Nc3ccc(NC(C)=O)cc3)s2)cn1
20 | > 28 µM (inactive) | COc1cccc(NC(=O)n2ncc3c(C)cccc32)c1
21 | > 28 µM (inactive) | CCC1CN(CCNC(=O)CC2CCCC2)Cc2cc(OC)ccc2O1 (stereo unspecified)
22 | inactive | COc1ccc(C2C3C(C)=NN=C3CC(C)(O)C2C(C)=O)cc1 (stereo unspecified)
23 | > 28 µM (inactive) | O=S(=O)(O)c1ccc2nc(-c3ccccc3)[nH]c2c1
24 | > 30 µM (inactive) | O=C(O)c1ccc(-c2nc3ccccc3s2)s1
25 | > 28.1 µM (inactive) | O=C(Cc1cn(-c2ccc(Cl)nn2)c2ccccc12)NCCN1CCOCC1

Row | EC50 | Structure (SMILES)
26 | > 28 µM (inactive) | C=CCN1C(=O)/C(=C/c2ccc(Cl)cc2)C(=O)NC1=S
27 | > 23.3 µM (inactive) | Cc1cccc(N2CCN(C(=O)c3ccc(S(=O)(=O)c4ccc(F)cc4)c([N+](=O)[O-])c3)C(C)C2)c1 (stereo unspecified)
28 | > 28 µM (inactive) | Cc1cc(C)c(C#N)c(Oc2cccc(N)c2)n1
29 | > 28 µM (inactive) | Cc1ccc2nc(/C(C#N)=C\c3ccccc3OCC#N)[nH]c2c1
30 | > 35 µM (inactive) | COc1ccc(-c2nc3ccccc3[nH]2)cc1
31 | > 28 µM (inactive) | O=C(O)c1ccc(-n2cc(-c3cnccn3)cn2)cc1
32 | > 28 µM (inactive) | Cc1ccc2c(c1)N(CC(=O)Nc1ccc(Cl)cc1)C(=O)C(C)O2 (stereo unspecified)
33 | > 28 µM (inactive) | O=C(Nc1noc2ccccc12)c1ccc(F)cc1
34 | > 28 µM (inactive) | Cc1ccccc1C(=O)Nc1noc2ccccc12
35 | > 34 µM (inactive) | O=C(Nc1ncc([N+](=O)[O-])s1)c1ccccc1F
36 | > 28 µM (inactive) | COc1ccc(OC)c(C(C)NC(=O)c2ccccc2Cl)c1 (stereo unspecified)
37 | > 28 µM (inactive) | COC(=O)c1ccc(CN2CCN(Cc3ccc(OC)c(C)c3)C(CCO)C2)cc1 (stereo unspecified)
38 | > 29.7 µM (inactive) | O=C(O)C1CCCN(c2ncnc3scc(-c4ccccc4)c23)C1 (stereo unspecified)
39 | > 28 µM (inactive) | C=CCN(c1ccc(C(=O)Nc2ccc(Cl)cc2)cc1)S(C)(=O)=O
40 | > 27.8 µM (inactive) | Cc1ccc(-n2nc3c(c2NC(=O)c2cccc(F)c2)CS(=O)C3)c(C)c1 (stereo unspecified)
41 | > 28 µM (inactive) | NC(=O)/C(=C\c1ccco1)NC(=O)c1ccccc1Br
42 | > 33.2 µM (inactive) | COc1cccc(/C=C(\C#N)c2nc3ccc(C)cc3[nH]2)c1OC
43 | > 28 µM (inactive) | Cc1nn(-c2ccccc2)c(Cl)c1/C=N\O
44 | > 28 µM (inactive) | Cn1nc(C(=O)NCc2ccc(F)cc2)c2c1-c1ccccc1OC2
45 | > 21.4 µM (inactive) | CCOC(=O)c1cc2c(c(CSc3nc4ccccc4c(=O)n3Cc3ccc4c(c3)OCO4)c1)OCOC2
46 | > 28 µM (inactive) | COc1ccc(/C=C/C(=O)Nc2ccccc2C(=O)O)cc1OC
47 | > 28.6 µM (inactive) | N#Cc1ccsc1NC(=O)/C=C/c1ccccc1
48 | > 29.7 µM (inactive) | CC[n+]1cc(C)ccc1/C=C/c1ccc(N(C)C)cc1
49 | > 28.4 µM (inactive) | O=c1oc(Nc2cccc(C(F)(F)F)c2)nc2ccccc12
50 | > 28 µM (inactive) | CCN(CC)C(=O)c1cn(CCC#N)nc1-c1ccc(OC)c([N+](=O)[O-])c1

Row | EC50 | Structure (SMILES)
51 | > 28.2 µM (inactive) | Cc1ccc(C(=O)Nc2nc(Cl)c(C#N)s2)cc1
52 | > 28 µM (inactive) | CC(C)N1CCC(=NNC(=O)c2ccc(C(C)(C)C)cc2)CC1
53 | > 28 µM (inactive) | CC(C)c1ccc(N(CC(=O)NCCSc2ccccc2)S(C)(=O)=O)cc1
54 | > 28 µM (inactive) | CCOC(=O)c1ccccc1NC(=O)CN(c1ccc(Cl)c(Cl)c1)S(C)(=O)=O
55 | > 25.2 µM (inactive) | CCN(CC)c1nc(SC)nc(Cl)c1Cc1ccc(OC(C)C)cc1
56 | > 28 µM (inactive) | Cc1ccc(CNC(=O)c2c(C)cc(=O)oc2C)cc1
57 | > 28 µM (inactive) | COc1ccc(C(=O)Nc2cccc(C(=O)N3CCCC3)c2)cc1
58 | > 28 µM (inactive) | O=C(O)c1cccc(COc2ccc(CO)cc2Br)c1
59 | > 28 µM (inactive) | Cc1nc2nc(SCC(=O)N3CCOCC3)nn2c(C)c1Cc1ccccc1
60 | > 28 µM (inactive) | COC(C(=O)NCC1CCC2(CCN(Cc3ccccc3)CC2)O1)c1ccccc1 (stereo unspecified)
61 | 1.17 µM | COc1ccc(CCNc2cc(C)nc(Nc3ccc(-n4ccnc4)cc3)n2)cc1
62 | > 28 µM (inactive) | Cc1nc(NC(=O)CSc2ccc(-c3nc4ccccc4[nH]3)cn2)sc1C
63 | > 20.6 µM (inactive) | CCC(Sc1nc(NC2CCCCC2)c2ccccc2n1)C(=O)Nc1ccc2c(c1)OCO2 (stereo unspecified)
64 | > 28.7 µM (inactive) | Oc1csc(Cc2nc(-c3ccccc3F)cs2)n1
65 | > 28 µM (inactive) | Oc1ccc(Nc2ncnc3ccc(I)cc23)cc1
66 | inactive | COc1ccc(CCNc2ccnc(Nc3ccc(N4CCOCC4)cc3)n2)cc1
67 | > 28 µM (inactive) | Cc1ccc(C(=O)NN=C2CCC(C)CC2)cc1 (stereo unspecified)
68 | inactive | CC(=O)Nc1ccc(Nc2ccnc(N3CCc4ccccc4C3)n2)cc1
69 | > 28 µM (inactive) | CCc1ccc2c(c1)/C(=C/C(=O)c1cccs1)C(=O)N2
70 | > 28 µM (inactive) | Cc1cnc(C)c(NC2CCCCNC2=O)n1 (stereo unspecified)
71 | > 31.7 µM (inactive) | COc1ccc(C(=O)Nc2ccc(-n3nncc3C(C)(C)C)cc2)cc1
72 | > 28 µM (inactive) | Cc1csc2ncc(C(=O)N3CCc4ccccc43)c(=O)n12
73 | > 28 µM (inactive) | Cc1ccc2nc(-c3ccc(O)cc3)[nH]c2c1
74 | > 28 µM (inactive) | CCn1ccnc1CN1CCN(Cc2ccc(F)cc2)C(CCO)C1 (stereo unspecified)
75 | > 38.4 µM (inactive) | Cc1ccc2nc(-c3ccccc3)[nH]c2c1

Row | EC50 | Structure (SMILES)
76 | > 28 µM (inactive) | CCN(CC(=O)NC1CCCCCC1)S(=O)(=O)c1ccc(C)cc1
77 | > 28 µM (inactive) | COC(=O)c1c(NC(=O)/C=C\C(=O)O)sc(C)c1C
78 | > 28 µM (inactive) | COc1ccc(CNC(=O)CCCn2cccc2)cc1
79 | > 19.1 µM (inactive) | CN1C(=O)C(=Cc2nc3ccccc3c(=O)n2-c2ccc([N+](=O)[O-])cc2)c2cc(Br)ccc21
80 | > 28 µM (inactive) | COc1ccccc1OCC(=O)Nc1ccc(S(=O)(=O)NC(C)=O)cc1
81 | > 25.1 µM (inactive) | CCOC(=O)C1=C(C)N=c2s/c(=C\c3ccc(-c4ccccc4C(=O)O)o3)c(=O)n2C1c1ccccc1OC (stereo unspecified)
82 | > 28 µM (inactive) | COC(=O)C(NC(=O)c1ccc(Br)cc1)c1ccccc1 (stereo unspecified)
83 | > 28 µM (inactive) | Cc1cc2nc3c(=O)n(C4CCCCCC4)c(=O)[nH]c3nc2cc1N
84 | > 28 µM (inactive) | COc1ccc(-c2ccc(C(=O)Nc3ccccc3)s2)cn1
85 | > 18.7 µM (inactive) | Cc1ccc(NC(=O)/C(=C/c2cccc([N+](=O)[O-])c2)NC(=O)c2cccs2)c(Br)c1
86 | > 28.2 µM (inactive) | C/C(=N\NC(=S)NCc1ccco1)c1cccc([N+](=O)[O-])c1
87 | > 27.4 µM (inactive) | COc1cccc(-c2ccc(SCC(=O)Nc3cccc(NC(C)=O)c3)nn2)c1
88 | inactive | CC[n+]1c(/C=C2\Sc3ccc(C)cc3N2CCO)ccc2ccccc21
89 | > 28 µM (inactive) | Cc1ccc(S(=O)(=O)N(CC(O)Cn2nc(C)cc2C)c2cccc([N+](=O)[O-])c2)cc1 (stereo unspecified)
90 | > 26.6 µM (inactive) | COc1cc(C2CC(=O)Nc3cc(C)c(C)cc32)cc(OC)c1OC (stereo unspecified)
91 | > 28 µM (inactive) | O=C1N[C@@H](Cc2ccc(Cl)cc2)C(=O)N2CCN(C(=O)c3cc(Cl)cc(Cl)c3)C[C@H]12
92 | > 27.8 µM (inactive) | Cn1ncc2c(NCCc3ccc(Cl)cc3Cl)ncnc21
93 | > 28 µM (inactive) | CCc1cc2c(cc3c(=O)n(CC(=O)NCc4ccccc4Br)ncn32)s1
94 | > 28 µM (inactive) | COC(=O)c1cccc(NC(=O)c2cccc(Br)c2)c1C
95 | > 28 µM (inactive) | COc1ccc(-c2ccc(C(=O)NC3CC3)s2)cc1
96 | > 28 µM (inactive) | COc1ccc(C(=O)/C=C\N2CCOCC2)cc1
97 | > 28 µM (inactive) | Fc1cccc(-c2cc3nc4c(c(N5CCOCC5)n3n2)CCC4)c1
98 | > 28 µM (inactive) | CC(C)(C)NS(=O)(=O)c1ccc(NC(=O)COc2ccc(Br)cc2)cc1
99 | > 9.34 µM (inactive) | CCOc1cc(NC(=O)C2CCCO2)c(OCC)cc1NC(C)=O (stereo unspecified)
100 | > 28 µM (inactive) | O=C(CSc1nc(-c2ccccc2)cs1)Nc1ccccc1

Row | Structure (SMILES) | EC50
101 | CC1=NCCc2c1[nH]c1cc(O)ccc21 | > 28 µM (inactive)
